# Data from patent publication US9051270B2, “Pyridone amides as modulators of sodium channels” (Vertex Pharmaceuticals Incorporated, priority 2013, dated 2015).
# Target: human Nav1.8 (Homo sapiens (Human), UniProt Q9Y5Y9)
# Assay: E-VIPR optical membrane potential assay with electrical stimulation
# Format: cell-based
# Conditions: HEK cells expressing human Nav1.8
# Source text: Sodium channels are voltage-dependent proteins that can be activated by inducing membrane voltage changes by applying electric fields. […] The instrument comprises a microtiter plate handler, an optical system for exciting the coumarin dye while simultaneously recording the coumarin and oxonol emissions, a waveform generator, a current- or voltage-controlled amplifier, and a device for inserting electrodes in well. Under integrated computer control, this instrument passes user-programmed electrical stimulus protocols to cells within the wells of the microtiter plate.
# 24 hours before the assay on E-VIPR, HEK cells expressing human Nav1.8 were seeded in 384-well poly-lysine coated plates at 15,000-20,000 cells per well. […] Cells were grown in vented cap flasks, in 90% humidity and 5% CO2.
# To make the solution added volume of 10% Pluronic F127 stock equal to volumes of CC2-DMPE+DiSBAC6(3). The order of preparation was first mixing Pluronic and CC2-DMPE, then adding DiSBAC6(3) while vortexing, then adding Bath1+β-Cyclodextrin.
# 1) Pre-spotted compounds (in neat DMSO) into compound plates. […] Final compound plate volume was 80 μL (80-fold intermediate dilution from 1 μL DMSO spot; 160-fold final dilution after transfer to cell plate).
# 2) Prepared Hexyl Dye Solution.
# 3) Prepared cell plates. On the day of the assay, medium was aspirated and cells were washed three times with 100 μL of Bath1 Solution, maintaining 25 μL residual volume in each well.
# 4) Dispensed 25 μL per well of Hexyl Dye Solution into cell plates. Incubated for 20-35 minutes at room temp or ambient conditions.
# 5) Dispensed 80 μL per well of Bath1 into compound plates. Acid Yellow-17 (1 mM) was added and Potassium Chloride was altered from 4.5 to 20 mM depending on the NaV subtype and assay sensitivity.
# 6) Washed cell plates three times with 100 μL per well of Bath1, leaving 25 μL of residual volume. Then transferred 25 uL per well from Compound Plates to Cell Plates. Incubated for 20-35 minutes at room temp/ambient condition.
# 7) Read Plate on E-VIPR. […] A pre-stimulus recording was performed for 0.5 seconds to obtain the un-stimulated intensities baseline. The stimulatory waveform was followed by 0.5 seconds of post-stimulation recording to examine the relaxation to the resting state.
# Data was analyzed and reported as normalized ratios of emission intensities measured in the 460 nm and 580 nm channels. The response as a function of time was reported as the ratios obtained using the following formula: […]
# The data was further reduced by calculating the initial (Ri) and final (Rf) ratios. These were the average ratio values during part or all of the pre-stimulation period, and during sample points during the stimulation period. The response to the stimulus R=Rf/Ri was then calculated and reported as a function of time.
# Control responses were obtained by performing assays in the presence of a compound with the desired properties (positive control), such as tetracaine, and in the absence of pharmacological agents (negative control). Responses to the negative (N) and positive (P) controls were calculated as above. The compound antagonist activity A is defined as:
# [formula] where R is the ratio response of the test compound
# Sequence of human Nav1.8 (Q9Y5Y9 whole entry): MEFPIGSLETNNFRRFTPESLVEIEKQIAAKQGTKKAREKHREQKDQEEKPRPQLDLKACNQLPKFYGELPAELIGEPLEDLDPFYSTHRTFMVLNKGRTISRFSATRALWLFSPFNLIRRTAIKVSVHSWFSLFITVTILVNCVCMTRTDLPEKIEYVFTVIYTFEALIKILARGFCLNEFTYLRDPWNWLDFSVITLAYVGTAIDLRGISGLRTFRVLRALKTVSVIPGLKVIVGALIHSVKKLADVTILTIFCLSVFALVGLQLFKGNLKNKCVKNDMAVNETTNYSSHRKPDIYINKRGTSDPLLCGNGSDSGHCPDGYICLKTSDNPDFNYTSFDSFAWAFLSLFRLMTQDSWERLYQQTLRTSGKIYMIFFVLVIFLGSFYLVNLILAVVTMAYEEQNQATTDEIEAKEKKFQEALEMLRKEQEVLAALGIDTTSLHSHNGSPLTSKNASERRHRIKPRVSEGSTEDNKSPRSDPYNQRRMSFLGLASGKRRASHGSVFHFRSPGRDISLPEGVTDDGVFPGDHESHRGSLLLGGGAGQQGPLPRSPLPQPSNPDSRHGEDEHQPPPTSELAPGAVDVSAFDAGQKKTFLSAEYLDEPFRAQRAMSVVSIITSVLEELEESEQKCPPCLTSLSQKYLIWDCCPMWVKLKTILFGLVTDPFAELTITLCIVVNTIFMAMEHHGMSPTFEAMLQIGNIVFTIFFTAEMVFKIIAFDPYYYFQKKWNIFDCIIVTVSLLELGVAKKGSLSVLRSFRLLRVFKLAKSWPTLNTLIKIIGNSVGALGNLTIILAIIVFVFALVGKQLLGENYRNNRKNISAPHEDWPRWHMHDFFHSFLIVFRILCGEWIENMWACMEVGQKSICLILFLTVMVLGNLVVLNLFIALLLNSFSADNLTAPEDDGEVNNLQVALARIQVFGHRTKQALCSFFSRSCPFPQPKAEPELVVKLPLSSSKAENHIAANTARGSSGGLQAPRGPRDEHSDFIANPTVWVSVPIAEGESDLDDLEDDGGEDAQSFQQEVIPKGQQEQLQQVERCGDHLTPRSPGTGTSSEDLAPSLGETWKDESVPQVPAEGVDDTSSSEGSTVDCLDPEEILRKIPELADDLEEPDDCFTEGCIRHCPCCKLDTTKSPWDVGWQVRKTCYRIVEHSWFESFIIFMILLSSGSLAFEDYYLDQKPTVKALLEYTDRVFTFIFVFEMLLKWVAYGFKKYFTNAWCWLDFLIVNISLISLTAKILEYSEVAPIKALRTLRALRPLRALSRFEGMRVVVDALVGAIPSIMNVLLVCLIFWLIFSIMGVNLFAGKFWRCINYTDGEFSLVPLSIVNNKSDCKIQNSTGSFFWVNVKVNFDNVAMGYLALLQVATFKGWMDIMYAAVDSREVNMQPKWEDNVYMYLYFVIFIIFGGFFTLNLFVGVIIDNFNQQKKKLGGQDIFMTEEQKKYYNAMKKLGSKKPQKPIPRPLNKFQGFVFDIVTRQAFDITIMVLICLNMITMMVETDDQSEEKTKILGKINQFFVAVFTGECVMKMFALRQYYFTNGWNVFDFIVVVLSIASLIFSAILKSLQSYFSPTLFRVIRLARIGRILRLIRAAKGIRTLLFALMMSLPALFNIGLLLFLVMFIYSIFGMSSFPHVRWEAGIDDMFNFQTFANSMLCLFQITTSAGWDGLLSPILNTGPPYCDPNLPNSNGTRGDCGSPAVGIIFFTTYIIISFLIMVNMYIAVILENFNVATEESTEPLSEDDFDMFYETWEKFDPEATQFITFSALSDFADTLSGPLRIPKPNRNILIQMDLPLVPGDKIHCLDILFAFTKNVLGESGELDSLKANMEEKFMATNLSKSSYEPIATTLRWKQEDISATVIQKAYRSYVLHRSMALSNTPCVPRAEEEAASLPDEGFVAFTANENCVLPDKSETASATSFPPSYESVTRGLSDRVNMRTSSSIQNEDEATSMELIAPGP
row,IC50 [nM],Compound
1,2700,"COc1cccc(F)c1Oc1ccc(C(F)(F)F)cc1C(=O)Nc1cc[nH]c(=O)c1 [Compound 48, 2-(2-fluoro-6-methoxyphenoxy)-N-(2-oxo-1,2-dihydropyridin-4-yl)-5-(trifluoromethyl)benzamide]"
2,155,"CCCOc1ccc(Oc2ccc(F)cc2C(=O)Nc2cc[nH]c(=O)c2)cc1 [Compound 100, 5-fluoro-N-(2-oxo-1,2-dihydropyridin-4-yl)-2-(4-propoxyphenoxy)benzamide]"
3,420,"Cc1cc(C)c(C)c(Oc2ccc(C(F)(F)F)cc2C(=O)Nc2cc[nH]c(=O)c2)c1 [Compound 91, N-(2-oxo-1,2-dihydropyridin-4-yl)-5-(trifluoromethyl)-2-(2,3,5-trimethylphenoxy)benzamide]"
4,3550,"Cc1cc(C)c(Oc2ccc(F)cc2C(=O)Nc2cc[nH]c(=O)c2)cc1C [Compound 105, 5-fluoro-N-(2-oxo-1,2-dihydropyridin-4-yl)-2-(2,4,5-trimethylphenoxy)benzamide]"
5,17500,"O=C(Nc1cc[nH]c(=O)c1)c1ccc(C(F)(F)F)cc1OC1C[C@@H]2C[C@@H]2C1 (stereo partly drawn) [Compound 125, 2-((1R,5S)-bicyclo[3.1.0]hexan-3-yloxy)-N-(2-oxo-1,2-dihydropyridin-4-yl)-4-(trifluoromethyl)benzamide]"
6,1300,"O=C(Nc1cc[nH]c(=O)c1)c1ccc(C(F)(F)F)cc1OC1CC2CCC1C2 (centres unmarked) [Compound 127, 2-(bicyclo[2.2.1]heptan-2-yloxy)-N-(2-oxo-1,2-dihydropyridin-4-yl)-4-(trifluoromethyl)benzamide]"
7,29,"O=C(Nc1cc[nH]c(=O)c1)c1ccc(C(F)(F)F)cc1Oc1ccc(F)cc1Cl [Compound 77, 2-(2-chloro-4-fluorophenoxy)-N-(2-oxo-1,2-dihydropyridin-4-yl)-4-(trifluoromethyl)benzamide]"
8,56,"Cc1ccccc1Oc1cc(C(F)(F)F)ccc1C(=O)Nc1cc[nH]c(=O)c1 [Compound 11, N-(2-oxo-1,2-dihydropyridin-4-yl)-2-(o-tolyloxy)-4-(trifluoromethyl)benzamide]"
9,5150,"CC(C)c1ccc(Oc2ccc(F)cc2C(=O)Nc2cc[nH]c(=O)c2)cc1 [Compound 99, 5-fluoro-2-(4-isopropylphenoxy)-N-(2-oxo-1,2-dihydropyridin-4-yl)benzamide]"
10,1450,"O=C(Nc1cc[nH]c(=O)c1)c1cc(OC(F)(F)F)ccc1OCCC(F)(F)F [Compound 138, N-(2-oxo-1,2-dihydropyridin-4-yl)-5-(trifluoromethoxy)-2-(3,3,3-trifluoropropoxy)benzamide]"
11,113,"Cc1cc(NC(=O)c2cc(C(F)(F)F)ccc2Oc2ccc(F)cc2C)cc(=O)[nH]1 [Compound 61, 2-(4-fluoro-2-methylphenoxy)-N-(6-methyl-2-oxo-1,2-dihydropyridin-4-yl)-5-(trifluoromethyl)benzamide]"
12,135,"COc1cc(C)ccc1Oc1ccc(C(F)(F)F)cc1C(=O)Nc1cc[nH]c(=O)c1 [Compound 47, 2-(2-methoxy-4-methylphenoxy)-N-(2-oxo-1,2-dihydropyridin-4-yl)-5-(trifluoromethyl)benzamide]"
13,890,"COc1ccc(Oc2cc(C(F)(F)F)ccc2C(=O)Nc2cc[nH]c(=O)c2)c(Cl)c1F [Compound 110, 2-(2-chloro-3-fluoro-4-methoxyphenoxy)-N-(2-oxo-1,2-dihydropyridin-4-yl)-4-(trifluoromethyl)benzamide]"
14,560,"O=C(Nc1cc[nH]c(=O)c1)c1ccc(C(F)(F)F)cc1OC1CCCCC1 [Compound 128, 2-(cyclohexyloxy)-N-(2-oxo-1,2-dihydropyridin-4-yl)-4-(trifluoromethyl)benzamide]"
15,2600,"O=C(Nc1cc[nH]c(=O)c1)c1ccc(C(F)(F)F)cc1OCc1cc(F)ccc1O [Compound 159, 2-((5-fluoro-2-hydroxybenzyl)oxy)-N-(2-oxo-1,2-dihydropyridin-4-yl)-4-(trifluoromethyl)benzamide]"
16,1090,"O=C(Nc1cc[nH]c(=O)c1)c1ccccc1Oc1ccc(F)cc1 [Compound 1, 2-(4-fluorophenoxy)-N-(2-oxo-1,2-dihydropyridin-4-yl)benzamide]"
17,4600,"Cc1ccc(Oc2cc(C(F)(F)F)ccc2C(=O)Nc2cc[nH]c(=O)c2)cn1 [Compound 146, 2-((6-methylpyridin-3-yl)oxy)-N-(2-oxo-1,2-dihydropyridin-4-yl)-4-(trifluoromethyl)benzamide]"
18,3550,"Cc1c[nH]c(=O)cc1NC(=O)c1ccc(C(F)(F)F)cc1Oc1ccc(F)cc1C [Compound 86, 2-(4-fluoro-2-methylphenoxy)-N-(5-methyl-2-oxo-1,2-dihydropyridin-4-yl)-4-(trifluoromethyl)benzamide]"
19,11,"O=C(Nc1cc[nH]c(=O)c1)c1c(Oc2ccc(F)cc2)cc(C(F)(F)F)cc1C(F)(F)F [Compound 155, 2-(4-fluorophenoxy)-N-(2-oxo-1,2-dihydropyridin-4-yl)-4,6-bis(trifluoromethyl)benzamide]"
20,94,"COc1ccc(F)cc1Oc1ccc(C(F)(F)F)cc1C(=O)Nc1cc[nH]c(=O)c1 [Compound 52, 2-(5-fluoro-2-methoxyphenoxy)-N-(2-oxo-1,2-dihydropyridin-4-yl)-5-(trifluoromethyl)benzamide]"
21,470,"Cc1ccc(Oc2ccc(OC(F)(F)F)cc2C(=O)Nc2cc[nH]c(=O)c2)cc1 [Compound 35, N-(2-oxo-1,2-dihydropyridin-4-yl)-2-(p-tolyloxy)-5-(trifluoromethoxy)benzamide]"
22,27,"COc1c(F)cccc1Oc1cc(C(F)(F)F)ccc1C(=O)Nc1cc[nH]c(=O)c1 [Compound 87, 2-(3-fluoro-2-methoxyphenoxy)-N-(2-oxo-1,2-dihydropyridin-4-yk)-4-(trifluoromethyl)benzamide]"
23,32,"COc1ccc(Oc2ccc(C(F)(F)F)cc2C(=O)Nc2cc[nH]c(=O)c2)cc1F [Compound 59, 2-(3-fluoro-4-methoxyphenoxy)-N-(2-oxo-1,2-dihydropyridin-4-yl)-5-(trifluoromethyl)benzamide]"
24,31,"O=C(Nc1cc[nH]c(=O)c1)c1ccc(C(F)(F)F)cc1Oc1ccc(Cl)cc1 [Compound 78, 2-(4-chlorophenoxy)-N-(2-oxo-1,2-dihydropyridin-4-yl)-4-(trifluoromethyl)benzamide]"
25,107,"O=C(Nc1cc[nH]c(=O)c1)c1cc(C(F)(F)F)ccc1Oc1ccccc1Cl [Compound 65, 2-(2-chlorophenoxy)-N-(2-oxo-1,2-dihydropyridin-4-yl)-5-(trifluoromethyl)benzamide]"
26,300,"CCOc1ccc(Oc2ccc(F)cc2C(=O)Nc2cc[nH]c(=O)c2)cc1 [Compound 98, 2-(4-ethoxyphenoxy)-5-fluoro-N-(2-oxo-1,2-dihydropyridin-4-yl)benzamide]"
27,1400,"Cc1cc(C)c(C)c(Oc2ccc(F)cc2C(=O)Nc2cc[nH]c(=O)c2)c1 [Compound 94, 5-fluoro-N-(2-oxo-1,2-dihydropyridin-4-yl)-2-(2,3,5-trimethylphenoxy)benzamide]"
28,13500,"O=C(Nc1ccc(=O)[nH]c1)c1ccccc1Oc1ccc(F)cc1 [Compound 3, 2-(4-fluorophenoxy)-N-(6-oxo-1,6-dihydropyridin-3-yl)benzamide]"
29,12000,"O=C(Nc1cc[nH]c(=O)c1)c1cc(OC(F)(F)F)ccc1Oc1c(F)cccc1F [Compound 34, 2-(2,6-difluorophenoxy)-N-(2-oxo-1,2-dihydropyridin-4-yl)-5-(trifluoromethoxy)benzamide]"

row,Compound,IC50 [nM]
1,"O=C(Nc1cc[nH]c(=O)c1)c1ccc(Cl)cc1OCCCC(F)(F)F [Compound 129, 4-chloro-N-(2-oxo-1,2-dihydropyridin-4-yl)-2-(4,4,4-trifluorobutoxy)benzamide]",940
2,"CC(C)COc1ccc(C(F)(F)F)cc1C(=O)Nc1cc[nH]c(=O)c1 [Compound 131, 2-isobutoxy-N-(2-oxo-1,2-dihydropyridin-4-yl)-5-(trifluoromethyl)benzamide]",1500
3,"O=C(Nc1cc[nH]c(=O)c1)c1cc(C(F)(F)F)ccc1OCCCC(F)(F)F [Compound 133, N-(2-oxo-1,2-dihydropyridin-4-yl)-2-(4,4,4-trifluorobutoxy)-5-(trifluoromethyl)benzamide]",5800
